According to patent US9695119B2, “Methionine analogs and methods of using same” (Bioxiness Pharmaceuticals, Inc., priority 2008, dated 2017):
Where two headings read alike, the source gives them in different places.

How the values were obtained:
[1] = tested on: test bacteria (gram positive and gram negative microorganisms commonly associated with wound infection); assay: Broad spectrum bacterial growth inhibition, all test species together; type: cell-based; conditions: different bacteria in M9 minimal media
Procedure: (§1) Table 2 and FIG. 2 summarizes a series of studies, which were performed to test eradication of bacterial growth using various species (representative strains of gram positive and gram negative microorganisms commonly associated with wound infection). A 96-well plate format was used to culture different bacteria in M9 minimal media supplemented with glucose (M9) or same media supplemented with a range of concentrations of various analogues (Methionine, I-AA and I-AB). Experiments were carried out in duplicate.

[2] = tested on: E. coli (DH5-α); assay: Growth inhibition of E. coli by methionine analogs, 96-well plate, OD 550 nm over time; type: cell-based; conditions: for Absorbance: 12.5 mM, OD 550 nm
Excerpt: Comparative Minimum Bactericidal Concentration (MBC) results provide estimates of the susceptibility of various test articles against test organisms. A modification of the […] (NCCL) Standardized Protocol “Methods for dilution antimicrobial susceptibility tests for bacteria that grow aerobically” was used in these studies. Sterile Phosphate Buffer Saline (PBS) at pH 7.0 (vehicle) was used as the diluent. Use of such diluent allows for the determination of the intrinsic activity of our test articles in the absence of any interfering molecules. Specifically, each test article was diluted using 2-fold serial dilution in 96-well plate to give a range of concentrations from approximately 50 mM to 0.05 mM in a final volume of 0.1 mL. Each dilution was inoculated with 5×10^5 CFU/mL test bacteria. The initial optical density as absorbance of each well was read at OD 550 nm using ThermoMax plate reader. […] At various time intervals post-treatment, OD reading at 550 nm was recorded at various time intervals. FIG. 1A and Table 1 show time dependent growth inhibition capability of analogs on E. coli at 12.5 mM. For FIGS. 1A and 1B, the 96-well plate format was used to culture E. coli (DH5-α) cells in M9 minimal media supplemented with glucose (M9) or same media supplemented with a range of concentrations of various analogs. Experiments were carried out in duplicate.

[3] = tested on: E. coli; assay: Broad spectrum bacterial growth inhibition, 96-well plate, M9 media; type: cell-based; set-up: unit not given here
Procedure: as §1

[4] = tested on: B. subtillus; assay: as above; type: cell-based; set-up: unit not given here
Procedure: as §1

[5] = tested on: P. aeruginosa; assay: as above; type: cell-based; set-up: unit not given here
Procedure: as §1

[6] = tested on: CV-1 (African Green Monkey Kidney Cells) cells; conditions: 60 min, pH 7
Procedure: Preliminary studies of cytotoxicity were performed in a mammalian cell viability assay.
CV-1 cells were propagated in DMEM plus 8% FBS according to supplier's recommendations. CV-1 cells were seeded at 1.5×10^4 cells per well in 96-well plates and incubated overnight at 37° C. On the day of testing, growth medium was aspirated from each well, and 20 μl fresh medium was added per well. Test articles were diluted from 50 mM to 0.05 mM by 2-fold serial dilution using PBS at pH 7.0 for each test article. After which 80 μl of each dilution was added to each well for a total volume of 100 μl per well. Following 60 minutes exposure at 37° C., test articles were aspirated and replaced with fresh 100 μl tissue culture media and incubated for 24 hours at 37° C. Next day cell culture media was removed and cell viability was determined by addition of WST-8 (Dojindo, Japan) reagent and the absorption at 450 nm read spectrophotometrically. Orange-red formazan, which is produced by live cells, is a direct measure of cell viability in this assay.
Results are expressed as percentage of cells surviving the treatment as compared to PBS.

[7] = tested on: S. aureus; assay: Broad spectrum bacterial growth inhibition, 96-well plate, M9 media; type: cell-based
Procedure: as §1

[8] = tested on: Ps. sturtzeri; assay: as above; type: cell-based
Procedure: as §1

[9] = tested on: E. coli (DH5-α); assay: MBC spot inoculation onto gridded agar plate (growth or no growth); type: cell-based; conditions: spot inoculation from well 12, 11 and 10
Procedure: MBC was determined by plating 5 μL of each sample onto a gridded agar plate (see, for example, FIG. 1B). Plates were then incubated overnight at 37° C., and examined for growth or no growth. The concentration at which there was a complete absence of colony growth was determined to be the MBC. For FIGS. 1A and 1B, the 96-well plate format was used to culture E. coli (DH5-α) cells in M9 minimal media supplemented with glucose (M9) or same media supplemented with a range of concentrations of various analogs. Experiments were carried out in duplicate.

Compound: CSCC[C@H](NC(=O)CN)C(=O)NO.Cl [I-AB, (S)-2-(2-aminoacetamido)-N-hydroxy-4-(methylthio)butanamide hydrochloride]
- Concentration dependence of bacterial growth inhibition [1]: concentration-dependent
- Time within which most bacteria were killed [1]: ≤ 24 h
- Absorbance ([2]; E. coli, well 12, time 0 hrs): 0.085
- Absorbance ([2]; E. coli, well 12, time 1 hrs): 0.095
- Absorbance ([2]; E. coli, well 12, time 2 hrs): 0.111
- Absorbance ([2]; E. coli, well 12, time 3 hrs): 0.104
- Absorbance ([2]; E. coli, well 12, time 3.75 hrs): 0.090
- Absorbance ([2]; E. coli, well 12, time 5 hrs): 0.094
- Absorbance ([2]; E. coli, well 12, time 6.5 hrs): 0.090
- Absorbance ([2]; E. coli, well 12, time 7.25 hrs): 0.089
- Absorbance ([2]; E. coli, well 12, time 23 hrs): 0.091
- Concentration dependence of bacterial growth inhibition ([2]; E. coli, spot inoculated agar plate (FIG. 1B)): concentration-dependent
- E. coli growth inhibition ([2]; as compared to M9 and other analogs): significantly inhibited
- Broad Spectrum Bacterial Growth Inhibition Data, E. coli ([3]; Conc. 0.0, well 4, M9 media): 0.4
- Broad Spectrum Bacterial Growth Inhibition Data, E. coli ([3]; Conc. 0.1, well 5, M9 media): 0.4
- Broad Spectrum Bacterial Growth Inhibition Data, E. coli ([3]; Conc. 0.2, well 6, M9 media): 0.4
- Broad Spectrum Bacterial Growth Inhibition Data, E. coli ([3]; Conc. 0.4, well 7, M9 media): 0.4
- Broad Spectrum Bacterial Growth Inhibition Data, E. coli ([3]; Conc. 0.8, well 8, M9 media): 0.5
- Broad Spectrum Bacterial Growth Inhibition Data, E. coli ([3]; Conc. 1.6, well 9, M9 media): 0.4
- Broad Spectrum Bacterial Growth Inhibition Data, E. coli ([3]; Conc. 3.1, well 10, M9 media): 0.2
- Broad Spectrum Bacterial Growth Inhibition Data, E. coli ([3]; Conc. 6.3, well 11, M9 media): 0.2
- Broad Spectrum Bacterial Growth Inhibition Data, E. coli ([3]; Conc. 12.5, well 12, M9 media): 0.2
- Broad Spectrum Bacterial Growth Inhibition Data, B. subtillus ([4]; Conc. 0.0, well 4, M9 media): 0.5
- Broad Spectrum Bacterial Growth Inhibition Data, B. subtillus ([4]; Conc. 0.1, well 5, M9 media): 0.5
- Broad Spectrum Bacterial Growth Inhibition Data, B. subtillus ([4]; Conc. 0.2, well 6, M9 media): 0.4
- Broad Spectrum Bacterial Growth Inhibition Data, B. subtillus ([4]; Conc. 0.4, well 7, M9 media): 0.4
- Broad Spectrum Bacterial Growth Inhibition Data, B. subtillus ([4]; Conc. 0.8, well 8, M9 media): 0.2
- Broad Spectrum Bacterial Growth Inhibition Data, B. subtillus ([4]; Conc. 1.6, well 9, M9 media): 0.2
- Broad Spectrum Bacterial Growth Inhibition Data, B. subtillus ([4]; Conc. 3.1, well 10, M9 media): 0.2
- Broad Spectrum Bacterial Growth Inhibition Data, B. subtillus ([4]; Conc. 6.3, well 11, M9 media): 0.2
- Broad Spectrum Bacterial Growth Inhibition Data, B. subtillus ([4]; Conc. 12.5, well 12, M9 media): 0.2
- Broad Spectrum Bacterial Growth Inhibition Data, P. aeruginosa ([5]; Conc. 0.0, well 4, M9 media): 1.1
- Broad Spectrum Bacterial Growth Inhibition Data, P. aeruginosa ([5]; Conc. 0.1, well 5, M9 media): 1.0
- Broad Spectrum Bacterial Growth Inhibition Data, P. aeruginosa ([5]; Conc. 0.2, well 6, M9 media): 1.0
- Broad Spectrum Bacterial Growth Inhibition Data, P. aeruginosa ([5]; Conc. 0.4, well 7, M9 media): 1.0
- Broad Spectrum Bacterial Growth Inhibition Data, P. aeruginosa ([5]; Conc. 0.8, well 8, M9 media): 1.0
- Broad Spectrum Bacterial Growth Inhibition Data, P. aeruginosa ([5]; Conc. 1.6, well 9, M9 media): 1.0
- Broad Spectrum Bacterial Growth Inhibition Data, P. aeruginosa ([5]; Conc. 3.1, well 10, M9 media): 1.0
- Broad Spectrum Bacterial Growth Inhibition Data, P. aeruginosa ([5]; Conc. 6.3, well 11, M9 media): 0.1
- Broad Spectrum Bacterial Growth Inhibition Data, P. aeruginosa ([5]; Conc. 12.5, well 12, M9 media): 0.1
- Percentage of Surviving CV-1 cells relative to PBS ([6]; 0.1 mM): 97%
- Percentage of Surviving CV-1 cells relative to PBS ([6]; 0.2 mM): 94%
- Percentage of Surviving CV-1 cells relative to PBS ([6]; 0.39 mM): 97%
- Percentage of Surviving CV-1 cells relative to PBS ([6]; 0.78 mM): 97%
- Percentage of Surviving CV-1 cells relative to PBS ([6]; 1.56 mM): 98%
- Percentage of Surviving CV-1 cells relative to PBS ([6]; 3.13 mM): 100%
- Percentage of Surviving CV-1 cells relative to PBS ([6]; 6.25 mM): 100%
- Percentage of Surviving CV-1 cells relative to PBS ([6]; 12.5 mM): 101%
- Percentage of Surviving CV-1 cells relative to PBS ([6]; 25 mM): 100%
- Percentage of Surviving CV-1 cells relative to PBS ([6]; 50 mM): 60%
- Broad Spectrum Bacterial Growth Inhibition Data, S. aureus ([7]; Conc. 0.0, well 4, M9 media): 0.6
- Broad Spectrum Bacterial Growth Inhibition Data, S. aureus ([7]; Conc. 0.1, well 5, M9 media): 0.6
- Broad Spectrum Bacterial Growth Inhibition Data, S. aureus ([7]; Conc. 0.2, well 6, M9 media): 0.5
- Broad Spectrum Bacterial Growth Inhibition Data, S. aureus ([7]; Conc. 0.4, well 7, M9 media): 0.5
- Broad Spectrum Bacterial Growth Inhibition Data, S. aureus ([7]; Conc. 0.8, well 8, M9 media): 0.5
- Broad Spectrum Bacterial Growth Inhibition Data, S. aureus ([7]; Conc. 1.6, well 9, M9 media): 0.4
- Broad Spectrum Bacterial Growth Inhibition Data, S. aureus ([7]; Conc. 3.1, well 10, M9 media): 0.2
- Broad Spectrum Bacterial Growth Inhibition Data, S. aureus ([7]; Conc. 6.3, well 11, M9 media): 0.1
- Broad Spectrum Bacterial Growth Inhibition Data, S. aureus ([7]; Conc. 12.5, well 12, M9 media): 0.1
- Broad Spectrum Bacterial Growth Inhibition Data, Ps. sturtzeri ([8]; Conc. 0.0, well 4, M9 media): 0.5
- Broad Spectrum Bacterial Growth Inhibition Data, Ps. sturtzeri ([8]; Conc. 0.1, well 5, M9 media): 0.5
- Broad Spectrum Bacterial Growth Inhibition Data, Ps. sturtzeri ([8]; Conc. 0.2, well 6, M9 media): 0.3
- Broad Spectrum Bacterial Growth Inhibition Data, Ps. sturtzeri ([8]; Conc. 0.4, well 7, M9 media): 0.3
- Broad Spectrum Bacterial Growth Inhibition Data, Ps. sturtzeri ([8]; Conc. 0.8, well 8, M9 media): 0.2
- Broad Spectrum Bacterial Growth Inhibition Data, Ps. sturtzeri ([8]; Conc. 1.6, well 9, M9 media): 0.2
- Broad Spectrum Bacterial Growth Inhibition Data, Ps. sturtzeri ([8]; Conc. 3.1, well 10, M9 media): 0.2
- Broad Spectrum Bacterial Growth Inhibition Data, Ps. sturtzeri ([8]; Conc. 6.3, well 11, M9 media): 0.2
- Broad Spectrum Bacterial Growth Inhibition Data, Ps. sturtzeri ([8]; Conc. 12.5, well 12, M9 media): 0.2
- Re-growth after spot inoculation on agar plate [9]: absence of re-growth
